The source of these data is patent US9580430B2, “9H-pyrimido[4,5-B]indoles and related analogs as BET bromodomain inhibitors” (THE REGENTS OF THE UNIVERSITY OF MICHIGAN, priority 2014, dated 2017).

SMILES strings stand for the structures. Read-outs that look alike come from different tables or passages of the source.

Assay [1] concerns the target T1, recombinant BRD4 BD1 (Homo sapiens, UniProt O60885).
T1 construct: for recombinant BRD4 BD1 and BRD4 BD2 proteins
The experiment in a line: Competitive fluorescence-polarization (FP) binding assay, BRD4 BD1. On IC50 (nM) BRD4 BD1: probe 1.5 nM. To be noted: for Ki: read-out: Binding affinities (FP) BRD4BD1 Ki. How it is done:
(§1) Fluorescence Polarization (FP) competitive binding studies were carried out using a FAM labeled fluorescent probe (ZBA248 or BRD-1F) to determine binding affinities of representative Compounds of the Disclosure for recombinant BRD4 BD1 and BRD4 BD2 proteins. For example, equilibrium dissociation constants (Kd) values of ZBA248 to these […] proteins were determined from protein saturation experiments by monitoring the total fluorescence polarization of mixtures composed with the fluorescent probe at a fixed concentration and proteins with increasing concentrations up to full saturation. Serial dilutions of testing protein were mixed with ZBA248 to a final volume of 200 μl in the assay buffer. […] Plates were incubated at room temperature for 30 minutes with gentle shaking to assure equilibrium. […] Kd values of ZBA248 were calculated by fitting the sigmoidal dose-dependent FP increases as a function of protein concentrations using Graphpad Prism 6.0 software (Graphpad Software, San Diego, Calif.).
(§2) The IC50 and Ki values of representative Compounds of the Disclosure were determined in a competitive binding experiment as described above. Mixtures of 10 μl of the tested compounds in assay buffer with 40% Ethylene Glycol and 190 μl of preincubated protein/probe complex solution in the assay buffer (100 mM potassium phosphate, pH 6.5, 0.01% Triton X-100) were added into assay plates which were incubated at room temperature for 30 minutes with gentle shaking. Final concentrations of proteins were 10 and 6 nM in assays for BD1 and BD2 of BRD4, respectively. […] FP values were measured as described above. IC50 values were determined by nonlinear regression fitting of the competition curves.

Assay [2] concerns the target T2, recombinant BRD4 BD2 (Homo sapiens, UniProt O60885).
T2 construct: for recombinant BRD4 BD1 and BRD4 BD2 proteins
The experiment in a line: Competitive fluorescence-polarization (FP) binding assay, BRD4 BD2. On IC50 (nM) BRD4 BD2: probe 1.5 nM. To be noted: for Ki: read-out: Binding affinities (FP) BRD4BD2 Ki. How it is done:
as §1, §2

Assay [3] concerns MDA-MB-436. The experiment in a line: Cell growth inhibition, MDA-MB-436 breast cancer cells (WST-8). It counts as cell-based. To be noted: Homo sapiens, 96 h; MDA-MB-436 cells, 4 days; read-out: Cellular data MDA-MB-436 IC50. How it is done:
All the breast cancer cell lines were obtained from the ATCC. Cell viability was determined using the WST-8 (2-(2-methoxy-4-nitrophenyl)-3-(4-nitrophenyl)-5-(2,4-disulfophenyl)-2H-tetrazolium, monosodium salt) based Cell Counting-8 Kit (Dojindo Molecular Technologies, Inc., Rockville, Md.) according to the manufacture's instruction. […] The absorbance was measured at 450 nm using a SPECTRAmax PLUS plate reader (Molecular Devices, Sunnyvale, Calif.). The IC50 was calculated using the GraphPad Prism 5 software.
Background: Tetrazolium dyes change colour on reduction, which living cells bring about.

Setting [4] is: competitive FP assay, protein 10 nM, probe […], read-out: IC50 (nM) BRD4 BD1.
[5] abbreviates: competitive FP assay, protein 6 nM, probe […], read-out: IC50 (nM) BRD4 BD2.
Where [6] appears, read: FP competitive binding, BRD4 BD1, read-out: Binding affinities (FP) BRD4BD1 IC50.
[7] abbreviates: FP competitive binding, BRD4 BD1.
Where [8] appears, read: FP competitive binding, BRD4 BD2, read-out: Binding affinities (FP) BRD4BD2 IC50.
Setting [9] is: FP competitive binding, BRD4 BD2.

With `COc1cc2c(cc1-c1c(C)noc1C)[nH]c1nc(C)nc(Sc3ccccc3C(C)C)c12` [Cpd. No. 25, 4-(4-((2-isopropylphenyl)thio)-6-methoxy-2-methyl-9H-pyrimido[4,5-b]indol-7-yl)-3,5-dimethylisoxazole], the IC50 in assay [1] (setting [4]) and in assay [2] (setting [5]) was over 1000 nM each time.
As for `COc1cc2c(cc1-c1c(C)noc1C)[nH]c1nc(C)nc(Sc3c[nH]c4ccccc34)c12` [Cpd. No. 26, 4-(4-((1H-indol-3-yl)thio)-6-methoxy-2-methyl-9H-pyrimido[4,5-b]indol-7-yl)-3,5-dimethylisoxazole], the IC50 in assay [1] (setting [4]) and in assay [2] (setting [5]) was over 1000 nM each time.
Take `COc1cc2c(cc1-c1c(C)noc1C)[nH]c1nc(C)nc(Sc3cccc(C(C)(C)C)c3)c12` [Cpd. No. 27, 4-(4-((3-(tert-butyl)phenyl)thio)-6-methoxy-2-methyl-9H-pyrimido[4,5-b]indol-7-yl)-3,5-dimethylisoxazole]: the concentration for half-maximal inhibition (IC50) in assay [1] (setting [4]) and in assay [2] (setting [5]) was over 1000 nM in each case.
Consider `COc1cc2c(cc1-c1c(C)noc1C)[nH]c1nc(C)nc(Oc3cccc(Cl)c3)c12` [Cpd. No. 95, 4-(4-(3-chlorophenoxy)-6-methoxy-2-methyl-9H-pyrimido[4,5-b]indol-7-yl)-3,5-dimethylisoxazole], for which the half-maximal inhibitory concentration (IC50) in assay [1] (setting [4]) and in assay [2] (setting [5]) was over 1000 nM in each case.
For the compound `COc1cc2c(cc1-c1c(C)noc1C)[nH]c1nc(C)nc(Oc3cccnc3)c12` [Cpd. No. 96, 4-(6-methoxy-2-methyl-4-(pyridin-3-yloxy)-9H-pyrimido[4,5-b]indol-7-yl)-3,5-dimethylisoxazole], the 50% inhibitory concentration (IC50) in assay [1] (setting [4]) was 864 nM; in assay [2] (setting [5]) it was 379 nM.
As for `COc1cc2c(cc1-c1c(C)noc1C)[nH]c1nc(C)nc(Nc3cc(C4CC4)nn3CCN(C)C)c12` [Cpd. No. 160, N-(3-Cyclopropyl-1-(2-(dimethylamino)ethyl)-1H-pyrazol-5-yl)-7-(3,5-dimethylisoxazol-4-yl)-6-methoxy-2-methyl-9H-pyrimido[4,5-b]indol-4-amine], the IC50 in assay [1] (setting [4]) came to 14.1 nM.
Still for that read-out and setting: then `COc1cc2c(cc1-c1c(C)noc1C)[nH]c1nc(C)nc(Nc3cc(C4CC4)nn3C3CNC3)c12` [Cpd. No. 163, N-(1-(Azetidin-3-yl)-3-cyclopropyl-1H-pyrazol-5-yl)-7-(3,5-dimethylisoxazol-4-yl)-6-methoxy-2-methyl-9H-pyrimido[4,5-b]indol-4-amine], with 8.8 nM; and `COc1cc2c(cc1-c1c(C)noc1C)[nH]c1nc(N)nc(Nc3cc(C4CC4)nn3C)c12` [Cpd. No. 206, N4-(3-cyclopropyl-1-methyl-1H-pyrazol-5-yl)-7-(3,5-dimethylisoxazol-4-yl)-6-methoxy-9H-pyrimido[4,5-b]indole-2,4-diamine], with 5.6 nM.
In the case of `COCc1nc(Nc2cc(C3CC3)nn2C)c2c(n1)[nH]c1cc(-c3c(C)noc3C)c(OC)cc12` [Cpd. No. 207, N-(3-cyclopropyl-1-methyl-1H-pyrazol-5-yl)-7-(3,5-dimethylisoxazol-4-yl)-6-methoxy-2-(methoxymethyl)-9H-pyrimido[4,5-b]indol-4-amine], the concentration for half-maximal inhibition (IC50) in assay [1] (setting [4]) was 2.9 nM; in assay [2] (setting [5]) it was 1.3 nM.
The like results for `COc1cc2c(cc1-c1c(C)noc1C)[nH]c1nc(C)nc(Nc3ccnc(C)c3)c12` [Cpd. No. 248, 7-(3,5-dimethylisoxazol-4-yl)-6-methoxy-2-methyl-N-(2-methylpyridin-4-yl)-9H-pyrimido[4,5-b]indol-4-amine] were, in that order, 70 nM and 79 nM.
The like results for `COCCn1nc(C2CC2)cc1Nc1nc(C)nc2[nH]c3cc(-c4c(C)noc4C)c(OC)cc3c12` [Cpd. No. 266, N-(3-Cyclopropyl-1-(2-methoxyethyl)-1H-pyrazol-5-yl)-7-(3,5-dimethylisoxazol-4-yl)-6-methoxy-2-methyl-9H-pyrimido[4,5-b]indol-4-amine] were, in that order, 10.3 nM and 3.1 nM.
Regarding `CCn1nc(C2CC2)cc1Nc1nccc2[nH]c3cc(-c4c(C)noc4C)c(OC)cc3c12` [Cpd. No. 285, N-(3-cyclopropyl-1-ethyl-1H-pyrazol-5-yl)-7-(3,5-dimethylisoxazol-4-yl)-8-methoxy-5H-pyrido[4,3-b]indol-1-amine], the IC50 in assay [1] (setting [6]) came to 18.9 nM; in assay [2] (setting [8]), 9.8 nM. The values for the Ki in assay [1] (setting [7]) and in assay [2] (setting [9]) were 3.7 nM and 2.1 nM, respectively.
For `COc1cc2c(cc1-c1c(C)noc1C)[nH]c1ccnc(Nc3c4c(nn3C(C)C)CCC4)c12` [Cpd. No. 286, 7-(3,5-dimethylisoxazol-4-yl)-N-(2-isopropyl-2,4,5,6-tetrahydrocyclopenta[c]pyrazol-3-yl)-8-methoxy-5H-pyrido[4,3-b]indol-1-amine], in that order: 28.7 nM, 18.5 nM, 5.1 nM and 4.6 nM.
For `COc1cc2c(nc1-c1c(C)noc1C)[nH]c1nc(C)nc(Nc3cc(C4CC4)nn3C)c12` [Cpd. No. 304], in that order: 63 nM, 318 nM, 15 nM and 94 nM.
Regarding `COc1nc2c(cc1-c1c(C)noc1C)[nH]c1nc(C)nc(Nc3cc(C)nn3C(C)(C)C)c12` [Cpd. No. 310, N-(1-(tert-butyl)-3-methyl-1H-pyrazol-5-yl)-7-(3,5-dimethylisoxazol-4-yl)-6-methoxy-2-methyl-9H-pyrido[2′,3′:4,5]pyrrolo[2,3-d] pyrimidin-4-amine], the half-inhibitory concentration (IC50) in assay [1] (setting [6]) was found to be 378 nM; in assay [2] (setting [8]), 313 nM; in assay [3], 1280 nM. Besides, the Ki in assay [1] (setting [7]) came to 143 nM; in assay [2] (setting [9]), 113 nM.
As to `COc1cc2c3c(N(C)c4cc(C5CC5)nn4C4CN(C)C4)nc(C)nc3n(C)c2cc1-c1c(C)noc1C` [compound 258, N-(3-Cyclopropyl-1-(1-methylazetidin-3-yl)-1H-pyrazol-5-yl)-7-(3,5-dimethyl-isoxazol-4-yl)-6-methoxy-N,2,9-trimethyl-9H-pyrimido[4,5-b]indol-4-amine], the IC50 in assay [1] (setting [4]) amounted to 8.1 nM; in assay [2] (setting [5]) it was 2.8 nM.
Take `COc1nc2c(cc1-c1c(C)noc1C)[nH]c1nc(C)nc(Nc3nn(C)c4ncccc34)c12` [compound 311, 7-(3,5-dimethylisoxazol-4-yl)-6-methoxy-2-methyl-N-(1-methyl-1H-pyrazolo[3,4-b]pyridin-3-yl)-9H-pyrido[2′,3′:4,5]pyrrolo [2,3-d]pyrimidin-4-amine]: the figures for the half-inhibitory concentration (IC50) in assay [1] (setting [6]), in assay [2] (setting [8]) and in assay [3] were 1090 nM, over 1000 nM and 1100 nM, respectively. The inhibition constant Ki in assay [1] (setting [7]) worked out at 602 nM.
With `COc1nc2c(cc1-c1c(C)noc1C)[nH]c1nc(C)nc(Nc3c(C)cnn3C(C)C)c12` [compound 312, 7-(3,5-dimethylisoxazol-4-yl)-N-(1-isopropyl-4-methyl-1H-pyrazol-5-yl)-6-methoxy-2-methyl-9H-pyrido[2′,3′:4,5]pyrrolo[2,3-d] pyrimidin-4-amine], the IC50 is 378 nM in assay [1] (setting [6]), 346 nM in assay [2] (setting [8]) and 1060 nM in assay [3]. Also, the Ki came to 140 nM in assay [1] (setting [7]) and 101 nM in assay [2] (setting [9]).
On to `COc1nc2c(cc1-c1c(C)noc1C)[nH]c1nc(C)nc(Nc3cccc(C)c3)c12` [compound 313, 7-(3,5-dimethylisoxazol-4-yl)-6-methoxy-2-methyl-N-(m-tolyl)-9H-pyrido[2′,3′:4,5]pyrrolo[2,3-d] pyrimidin-4-amine], for which the IC50 in assay [1] (setting [6]) was 4070 nM; in assay [2] (setting [8]), 4070 nM; in assay [3], over 2000 nM. Moreover, the Ki came to 1200 nM in assay [1] (setting [7]) and 1140 nM in assay [2] (setting [9]).

By IC50 is commonly meant the midpoint of a concentration-inhibition curve. What is called Ki is the equilibrium dissociation constant of an inhibitor or competing ligand from its target.
